Reference: US9732088B2, “C2-carbocyclic iminothiazine dioxides as BACE inhibitors, compositions, and their use” (Merck Sharp & Dohme Corp., priority 2014, dated 2017)

Key:
CSF Aβ40 [1] = test: Aβ Reduction In Vivo (rat CSF Aβ40); conditions: male CD IGS rats, 10 mg/kg oral gavage, CSF at 3 hours, change vs vehicle
Protocol: Assay 5: Aβ Reduction In Vivo
The in vivo efficacy and/or potency of BACE inhibitors (test compounds) can be evaluated using a variety of animal models, including mouse, rat, dog, and monkey, and these animals can be wild type, transgenic, or gene knockout animals.
Generally, animals are administered (by oral gavage, intravenous injection, or by other suitable route) a test compound in doses ranging from, for example, 0.1 mg/kg (mg of compound per kg of animal body weight) to 100 mg/kg formulated in vehicles, such as cyclodextrin, phosphate buffer, hydroxypropyl methylcellulose or other suitable vehicles. One to twenty-four hours following the administration of compound, animals are sacrificed, and tissues (for example, brain, cerebrospinal fluid (CSF), and/or plasma) are collected for analysis of Aβ levels and/or test compound concentrations (Dovey et al., 2001, Journal of Neurochemistry, 76, 173-181). Tissue samples are processed appropriately and then analyzed for the presence of Aβ by specific sandwich ELISA assays based on electrochemiluminescence (ECL) technology.
For example, in the following assay for which data are reported below, male CD IGS rats (body weight approximately 120 g, Charles River Laboratories, Kingston, N.Y.) were used to assess lowering of CSF levels of Aβ1-40 (Aβ40) in the presence of compounds of the invention. At time 0, animals were administered by oral gavage a test compound at a dose of 10 mg/kg in 20% hydroxypropyl-β-cyclodextrin (dosing volume 5 mL/kg). A separate group of animals received 20% hydroxypropyl-β-cyclodextrin alone to serve as the vehicle control group. Three hours after administration, the rats were euthanized with excess CO2. Immediately following euthanasia, CSF was collected from the cisterna magna and quickly frozen on dry ice. Samples were stored at −80° C. until quantification of Aβ40 levels.
The measurement of endogenous rat Aβ40 in CSF relied on the 585 antibody (Ab585, BioSource, NONO585), which specifically recognizes the N-terminal sequence of rodent Aβ40, and on the monoclonal antibody, G2-10, which specifically recognizes the free C-terminus of Aβ40. Ab585 was labeled with biotin (b-Ab585) by first dialyzing the antibody sample extensively versus PBS (pH 7.8) to remove impurities, followed by dilution to between 1 and 2 mg/mL protein concentration. EZ-Link Sulfo-NHS-LC-Biotin (Pierce) was dissolved in PBS (pH 7.8) at a concentration of 1 mg/mL immediately prior to use. Ab585 was labeled with EZ-Link Sulfo-NHS-LC-biotin using a 10:1 biotin:antibody ratio by incubation at room temperature for 1 hour. The labeling reaction was quenched by addition of 1.0 M glycine to a final concentration of 0.1 M followed by 10 minute incubation at room temperature. Glycine was removed by extensive dialysis versus PBS.
For rat CSF Aβ40 determinations, a calibration curve of various concentrations of synthetic rodent Aβ40 was assayed in parallel with rat CSF samples in duplicate using an avidin-coated 96-well MSD plate (Mesoscale Diagnostics). Either 50 μL of rodent Aβ40 standards diluted in PBS (pH 7.4) supplemented with 1% BSA and 1% Tween-20 (standard diluent buffer) or 40 μL of standard diluent buffer plus 10 μL rat CSF were added to each 96 well avidin-coated plate. To each well was added 50 μL of 0.1 M HEPES (pH 7.5), 2% BSA, 2% Tween-20, 0.3 M NaCl (2×Aβ40 buffer) supplemented with the b-Ab585 capture and ruthenylated-G2-10 detection antibodies diluted to 1 μg/mL and 0.5 μg/mL, respectively. Plates were shaken for 1 min on a microplate shaker, covered to protect from light and incubated overnight (˜16 h) at 4° C. For detection, plates were first washed twice with 100 μL of 1×CSF Aβ40 buffer followed by addition of 160 μL of 1×MSD read buffer-T (Mesoscale Diagnostics) diluted in 1×CSF Aβ40 buffer. Plates were read on a MSD Sector Imager 2400 model (Mesoscale Diagnosotics). […]

BACE-1 = BACE-1 (Homo sapiens (Human), UniProt P56817); conditions: data reported in US′109; read-out: BACE-1 Ki (nM) (ii) Data reported in US′109; cited from earlier work
Sequence of BACE-1 (P56817 46-501, species assumed): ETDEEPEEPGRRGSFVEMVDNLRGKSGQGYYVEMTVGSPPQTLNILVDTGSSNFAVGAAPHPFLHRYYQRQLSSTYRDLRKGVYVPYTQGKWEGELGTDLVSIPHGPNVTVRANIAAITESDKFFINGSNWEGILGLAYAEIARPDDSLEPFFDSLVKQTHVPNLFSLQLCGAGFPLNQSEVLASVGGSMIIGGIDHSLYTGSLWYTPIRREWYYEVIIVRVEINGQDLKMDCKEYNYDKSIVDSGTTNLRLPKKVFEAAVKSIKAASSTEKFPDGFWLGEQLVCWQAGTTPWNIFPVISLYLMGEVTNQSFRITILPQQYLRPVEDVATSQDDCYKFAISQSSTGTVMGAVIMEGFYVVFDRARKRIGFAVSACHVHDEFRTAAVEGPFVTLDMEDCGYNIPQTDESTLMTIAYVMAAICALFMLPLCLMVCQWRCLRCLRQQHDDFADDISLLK

HepG2 cells = test: In Vitro Phospholipidosis Assay; assay type: cell-based; conditions: 20 μM, 24 hours, normalized to DMSO
Source text: [formula] Assay 7: In Vitro Phospholipidosis Assay
Drug-induced phospholipidosis (PL) is characterized by intracellular accumulation of phospholipids with lamellular bodies, and may result from impaired phospholipid metabolism in the lysosome (Anderson et al., 2006, FEBS Letter, 580, 5533-5540), and many compounds known to cause drug-induced PL are also associated with adverse drug reactions. Using a method described in the literature (Bhandari et al., 2008, Assay and Drug Dev. Tech., 6(3), 407-419), an in vitro cellular assay can provide data that can determine the PL potential of test compounds. In this assay, compounds that lower values for mean inclusion count of a fluorescent phospholipid (described below) versus control are associated with reduced potential for PL.
HepG2 cells were dispensed into 96-well collagen I coated plates at an initial density of 2.0×10^5 cells in 200 μL complete culturing medium (MEM Media w/Earle's Balanced Salt Solution supplemented with 10 IU penicillin, 10 μg/mL streptomycin, and 10% heat inactivated fetal bovine serum). Cells were incubated overnight at 37° C. with 5% CO2, 89% humidity prior to treatment.
A solution of fluorescently labeled phospholipid N-(7-nitrobenz-2-oxa-1,3-diazol-4-yl)-1,2-dihexadecanoyl-sn-glycero-3-phosphoethanolamine (NBD-PE) was prepared at a concentration of 10 mM in absolute ethanol. Dissolution of the NBD-PE was facilitated by sonication in a room temperature water bath for 30 minutes. NBD-PE medium was prepared by diluting NBD-PE stock to a final concentration of 50 μM in complete culturing medium, filtering (pore size, 0.22 μm) prior to use.
Compound treatment stocks were prepared in dimethyl sulfoxide at 500× final concentrations. Working treatment solutions were prepared by diluting compound stocks into NBD-PE medium with DMSO serving as the vehicle control. Treatment concentration was 20 μM. Amiodarone ((2-{4-[(2-butyl-1-benzofuran-3-yl)carbonyl]-2,6-diiodophenoxy}ethyl)diethylamine) served as the assay positive control at the same concentration. All treatments were tested in triplicate for 24 hours.
Following treatment, cultures were rinsed once with Hank's Balanced Salt Solution (HBSS) containing no phenol red. Cultures were then incubated for 30 minutes at 37° C. with […] Hoechst 33342 nuclear stain and […] cell tracker orange cytoplasm stain. After incubation, cells were rinsed once with HBSS and then fixed in 2% formalin solution.
Cultures were imaged using the IN Cell Analyzer 2000 imaging system. One set of images were acquired with the 4× objective using the appropriate Hoechst filter settings to acquire a full-well cell count. Another set of images were acquired to evaluate treatment-related phospholipidosis with the 20× objective.
Images were analyzed using custom algorithms created in the IN Cell Workstation software using NBD-PE inclusion count in the cell cytoplasm as and endpoint associated with phospholipidosis. Data were expressed as fold over control, normalized to the DMSO vehicle control response.

CSF Aβ40 [2] = conditions: cited from earlier work

SMILES	Aβ reduction in vivo in rat (Δ% CSF Aβ40 @ 10 mpk) (CSF Aβ40 [1])	Ki (BACE-1) [nM]	In Vitro Phospholipidosis Assay: Mean NBD-PE Inclusion Count (Fold over control) (HepG2 cells)	Aβ reduction in vivo in rat (Δ% CSF Aβ40 @ 10 mpk) (ii) Data reported in US′109 (CSF Aβ40 [2]) [%]
COc1cnc2c(Nc3ccc(F)c([C@]4(C)CS(=O)(=O)C(C)(C)C(N)=N4)c3)nccc2n1 [Ex 47 of WO2014059185, reference compound]	−88%	2.9	13	−82
C[C@@]1(c2nc(Nc3nccc4cc(C#N)cnc34)ncc2F)CS(=O)(=O)[C@@](C)(C2CC2)C(N)=N1 [Example 5, 8-({4-[(3R,6S)-6-cyclopropyl-5-imino-3,6-dimethyl-1,1-dioxidothiomorpholin-3-yl]-5-fluoropyrimidin-2-yl}amino)-1,7-naphthyridine-3-carbonitrile]			1.3	
COc1cnc2c(Nc3cc([C@]4(C)CS(=O)(=O)[C@@](C)(C5CC5)C(N)=N4)c(F)cn3)nccc2c1 [Example 6, N-{4-[(3R,6S)-6-cyclopropyl-5-imino-3,6-dimethyl-1,1-dioxidothiomorpholin-3-yl]-5-fluoropyridin-2-yl}-3-methoxy-1,7-naphthyridin-8-amine]	−92%		3.1	
C[C@@]1(c2cc(Nc3ncnc4cc(C#N)cnc34)ccc2F)CS(=O)(=O)[C@@](C)(C2CC2)C(N)=N1 [Example 16, 4-({3-[(3R,6S)-6-cyclopropyl-5-imino-3,6-dimethyl-1,1-dioxidothiomorpholin-3-yl]-4-fluorophenyl}amino)pyrido[3,2-d]pyrimidine-7-carbonitrile]	−85%			
C[C@@]1(c2cc(Nc3nccc4cc(C#N)cnc34)ccc2F)CS(=O)(=O)[C@@](C)(C2CC2)C(N)=N1 [Example 18, 8-({3-[(3R,6S)-6-cyclopropyl-5-imino-3,6-dimethyl-1,1-dioxidothiomorpholin-3-yl]-4-fluorophenyl}amino)-1,7-naphthyridine-3-carbonitrile]	−87%			
COc1cnc2c(Nc3ccc(F)c([C@]4(C)CS(=O)(=O)[C@@](C)(C5CC5)C(N)=N4)c3)ncnc2n1 [Example 22, (2S,5R)-2-cyclopropyl-5-(2-fluoro-5-((7-methoxypteridin-4-yl)amino)phenyl)-3-imino-2,5-dimethylthiomorpholine 1,1-dioxide]	−70%		0.9	
CC1(C)C(=N)N[C@](C)(c2cc(Nc3noc4cc(F)cnc34)ccc2F)CS1(=O)=O [WO′426 Ex. 30b, reference compound]	+6%			
